# In patent publication US8071654B2, “Inhibitors of thromboxane formation and action” (priority 2000, dated 2011):
# What was measured:
# TP receptor [1] = biological target: T1, TP receptor (Homo sapiens, UniProt P21731); test: platelet aggregation evoked by I-BOP; type: cell-based; settings: 2 ng/0.5 ml, data not shown
# T1 construct: endogenous in cells; host or cells: washed human platelets
# T1 sequence (P21731 1-343): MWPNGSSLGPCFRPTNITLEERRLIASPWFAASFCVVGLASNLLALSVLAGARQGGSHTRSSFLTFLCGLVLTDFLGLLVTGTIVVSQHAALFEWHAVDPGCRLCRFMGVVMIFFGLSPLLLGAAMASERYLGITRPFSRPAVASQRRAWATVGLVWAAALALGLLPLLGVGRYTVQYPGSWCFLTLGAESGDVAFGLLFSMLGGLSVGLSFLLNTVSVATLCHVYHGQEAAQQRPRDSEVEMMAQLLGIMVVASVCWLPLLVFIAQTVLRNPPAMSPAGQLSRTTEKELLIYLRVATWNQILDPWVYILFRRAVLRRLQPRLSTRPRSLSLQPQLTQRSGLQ
# Procedure: Venous blood was obtained from healthy human subjects who had not taken NSAID's for at least two weeks. Blood was drawn into plastic syringes containing ACD. It was immediately centrifuged at 23° at 200×g for 15 min. The platelet rich plasma was transferred into fresh plastic tubes and centrifuged at 400×g for 5 min. The supernatant was discarded and the platelet sediment was resuspended in fresh medium containing NaCl (137 mM), KCl (1 mM), NaH2PO4, glucose (5.5 mM), HEPES (20 mM) and CaCl2 (1 mM) and allowed to stand at room temperature for 30 min. A platelet count was made, which determined the volume of platelet suspension needed to make up 350×10^6 cells for each measurement. The aliquot was diluted with medium to make 0.5 ml/assay/cuvette. […]
# 0.5 ml of platelet suspension was added to siliconized glass tubes (four at a time) and heated with magnetic stirring to 37° for 1 min in a platelet aggregometer (PAP-4C). […] The response was recorded for the next 5 min. […] In experiments where the conversion of tritiated PGH2 was to be monitored, the procedure described above was repeated with tritiated PGH2 instead of unlabeled PGH2. After extraction of the sample as described above, the radiolabeled compounds were analyzed by TLC. Dose response curves for varying amounts of test compounds were generated and the data expressed as % inhibition of collagen-induced platelet aggregation. […]
# platelet TP receptor = biological target: T2, platelet TP receptor (Homo sapiens, UniProt P21731); test: binding of 125I-BOP to platelets; settings: 10×10^6 cells/0.5 ml; read-out: IC50 for competition with 125I-BOP binding to platelets
# T2 construct: endogenous in cells; host or cells: washed human platelets
# T2 sequence (P21731 1-343): T1 sequence (P21731 1-343)
# Procedure: Washed platelets were prepared as described above, except that the platelet suspension was made up at a concentration of 10×10^6 cells/0.5 ml. The binding assay involved the addition of radioligand (30,000 cpm ^125I-BOP) to all tubes in triplicate, and either various doses of unlabeled I-BOP (10^−9-10^−7 M), PBT-3 (10^−9-10^−7 M) or U46619 (10^−9-10^−7 M) in 1 μl ethanol. Additional tubes containing excess unlabeled I-BOP were included to assess the extent of non-specific binding.
# [2] = intra ocular pressure in rats, eye drops, TonoPen; type: in vivo, Brown Norway rats; settings: one drop daily to left eye, after 10 days' treatment, vs untreated right eye
# Procedure: Brown Norway rats (300 g) were purchased from Charles River (St. Constant, Que), and housed (two/cage) in an animal facility with free access to food and water. A light cycle of 12 h on and 12 h off was maintained. Animals were allowed to adjust for one week prior to treatment during which period they were handled daily to get them familiarized with the procedures.
# Prior to treatment with test drugs, the rats' intra ocular pressures (IOP) were measured to establish baseline readings. One drop of Didocaine (0.5%, Dioptic Labs, Markham, Ont) was administered to each eye, and the pressure in each eye was measured with a TonoPen (Mentor XL, Innova Medical Ophthalmics, Toronto). The treatment protocol consisted of daily administration of one drop of one of the following substances to the left eye, the right eye being left untreated to act as a control. […] Following this, the animals were left without treatment for 2 weeks (wash-out), and then treatment was started again, the same animals receiving the same drugs. Results are calculated from at least 30 readings/test animal and presented as the mean±SEM (left eye vs right eye), with the exclusion of readings >50 and <10 which were considered spurious and artifactual readings.
# human platelets = test: collagen-evoked aggregation of washed human platelets; type: cell-based; settings: single dose 1 μg added 2 min prior to collagen (2 μg); 350×10^6 washed human platelets in 0.5 ml
# Procedure: Venous blood was obtained from healthy human subjects who had not taken NSAID's for at least two weeks. Blood was drawn into plastic syringes containing ACD. […] The platelet rich plasma was transferred into fresh plastic tubes and centrifuged at 400×g for 5 min. […] A platelet count was made, which determined the volume of platelet suspension needed to make up 350×10^6 cells for each measurement. The aliquot was diluted with medium to make 0.5 ml/assay/cuvette. Appropriate calibration of the aggregometer (PAP-4C) for 0% and 100% transmission was carried out through the use of a sample of platelet suspension and cell-free medium (37).
# (§1) 0.5 ml of platelet suspension was added to siliconized glass tubes (four at a time) and heated with magnetic stirring to 37° for 1 min in a platelet aggregometer (PAP-4C). Either vehicle alone (ethanol, 1 μl) or hepoxilin analog was then added, followed two min later by agonist (collagen: 2 μg; PGH2: 100 ng/0.5 ml; U46619: 10 ng/0.5 ml or I-BOP: 2 ng/0.5 ml). The response was recorded for the next 5 min. In experiments where analysis of TxB2 and HHT were to be made by HPLC, the platelet suspension at the end of the experiment was diluted with ethyl acetate, 100 ng of prostaglandin B1 was added as internal standard, and the mixture was acidified to pH 3 with 0.1 N HCl. After centrifugation, the organic layer was separated, washed twice with water to neutrality, and evaporated to dryness. Half of the sample was taken and was resuspended in 1 ml ethyl acetate containing 20 μg ADAM reagent, and was left in the dark for 2 h (38). The solvent was then evaporated and the residue was acetylated with a solution of pyridine/acetic anhydride (3/1, v/v) during 16 h at 23°. The reagents were evaporated to dryness and the residue was resuspended in acetonitrile/water for HPLC analysis. In experiments where the conversion of tritiated PGH2 was to be monitored, the procedure described above was repeated with tritiated PGH2 instead of unlabeled PGH2. After extraction of the sample as described above, the radiolabeled compounds were analyzed by TLC. Dose response curves for varying amounts of test compounds were generated and the data expressed as % inhibition of collagen-induced platelet aggregation. Each point was investigated 5 times and statistical analysis of the data was carried out using Macintosh Statview statistical software.
# TP receptor [3] = biological target: T1, TP receptor; test: platelet aggregation evoked by the TxA2 mimic U46619; type: cell-based; settings: aspirin 20 μg
# Procedure: Venous blood was obtained from healthy human subjects who had not taken NSAID's for at least two weeks. Blood was drawn into plastic syringes containing ACD. It was immediately centrifuged at 23° at 200×g for 15 min. The platelet rich plasma was transferred into fresh plastic tubes and centrifuged at 400×g for 5 min. The supernatant was discarded and the platelet sediment was resuspended in fresh medium containing NaCl (137 mM), KCl (1 mM), NaH2PO4, glucose (5.5 mM), HEPES (20 mM) and CaCl2 (1 mM) and allowed to stand at room temperature for 30 min. A platelet count was made, which determined the volume of platelet suspension needed to make up 350×10^6 cells for each measurement. The aliquot was diluted with medium to make 0.5 ml/assay/cuvette. Appropriate calibration of the aggregometer (PAP-4C) for 0% and 100% transmission was carried out through the use of a sample of platelet suspension and cell-free medium (37).
# as §1
# [4] = cited from earlier work
structure (smiles),measurement,setting,value
"O=C(O)CCC/C=C\C[C@@H]1[C@@H](/C=C/[C@H](O)COc2ccc(I)cc2)[C@H]2CC[C@@H]1O2 (relative stereo) [I-BOP, 5-heptenoic acid, 7-[3-[3-hydroxy-4-(4-iodophenoxy)-1-butenyl]-7-oxabicyclo [2.2.1]hept-2-yl]-,[15-[1α, 2α(Z), 3β(1E,3S*), 4α]], reference compound]",aggregation caused by the agonist,TP receptor [1],70%
same,IC50,platelet TP receptor,0.5 nM
"CC(C)(C)NC[C@H](O)COc1cccc2c1CCCC2=O [O-bunolol, reference compound]",effect on intra ocular pressure (IOP),[2]; 0.5%,non-significant rise
"CCCCC/C=C\CC1CC1/C=C/[C@@H](O)C/C=C\CCCC(=O)OC (stereo partly drawn) [PBT-1, 8(S)-hydroxy-11,12-cyclopropyl-eicosa-5Z,9E,14Z-trienoic acid methyl ester]",inhibition of collagen-evoked aggregation,human platelets,inhibited the collagen effect
"CCCCC/C=C\CC1CC1/C=C/C(O)C/C=C\CCCC(=O)OC [PBT-2, 8(R)-hydroxy-11,12-cyclopropyl-eicosa-5Z,9E,14Z-trienoic acid methyl ester]",inhibition of collagen-evoked aggregation,human platelets,inhibited the collagen effect
"CCCCC/C=C\CC1CC1[C@H](O)/C=C\C/C=C\CCCC(=O)OC (stereo partly drawn) [PBT-4, 10(R)-hydroxy-11,12-cyclopropyl-eicosa-5Z,8Z,14Z-trienoic acid methyl ester]",inhibition of collagen-evoked aggregation,human platelets,inhibited the collagen effect
"CCCCC/C=C\CC1CC1[C@@H](O)/C=C\C/C=C\CCCC(=O)N[C@H]1C(O)O[C@H](CO)[C@H](O)[C@@H]1O (stereo partly drawn) [PBT-30, 10(S)-hydroxy-11,12-cyclopropyl-eicosa-5Z, 8Z, 14Z-trienoic acid galactosamide]",effect on intra ocular pressure (IOP),[2]; 0.005%,tended to reduce IOP but the effect did not reach statistical significance
"CCCCCC(O)C=CC1C2CC(CO2)C1CC=CCCCC(=O)O (stereo not drawn) [U46619, 5-heptenoic acid, 7-[6-(3-hydroxy-1-octenyl)-2-oxabicyclo-[2,2,1]-hept-5yl]-[1R-[1α,4α,5β(z), 6α(1E,3S*)]-9,11-dideoxy-9α,11α-methanoepoxyprostaglandin F2α, reference compound]",IC50,platelet TP receptor,4.1 nM
"CC(=O)Oc1ccccc1C(=O)O [aspirin, reference compound]",effect on U46619-evoked aggregation,TP receptor [3],did not block
"CC(C)OC(=O)CCC/C=C\C[C@@H]1[C@@H](CC[C@@H](O)CCc2ccccc2)[C@H](O)C[C@@H]1O [latanoprost, reference compound]",effect on intra ocular pressure (IOP),[2]; 0.005%,significant reduction in IOP
"CCCCC[C@H](O)/C=C/[C@H]1O[C@H]2C[C@H](O2)[C@@H]1C/C=C\CCCC(=O)O [thromboxane A2 (TxA2), thromboxane A2]",half life in the body,[4],30 s
